Tests used:
Format in all cases: in vitro ADME
[1] = target: CYP2C9 (Homo sapiens (Human), UniProt P11712); experiment: CYP2C9 inhibition in human liver microsomes (diclofenac substrate); details: human liver microsome
Description: (§1) Test Example 7. Inhibitory Effect of Compound of the Present Application on Enzymatic Activity of CYP2C9, CYP2D6, and CYP3A4
(§2) The inhibition of CYP2C9, CYP2D6, and CYP3A4 activity by the compound of the present application was determined using the following method.
(§3) I. Experimental materials and instruments • 1. Human liver microsome (Corning 452117) • 2. NADPH (Solarbio 705Y021) • 3. Positive substrates diclofenac (Sigma SLBV3438), dextromethorphan (TRC 3-EDO-175-1), and midazolam (Cerilliant FE01161704) • 4. Positive inhibitors sulfaphenazole (D. Ehrenstorfer GmbH 109012), quinidine (TCI WEODL-RE), and ketoconazole (Sigma 100M1091V) • 5. AB Sciex Triple Quad 5500 liquid chromatography-mass spectrometry system
(§4) 1. Preparation of 100 mM phosphate-buffered saline (PBS): 7.098 g Na2HPO4 was weighed. 500 mL pure water was added. The mixture was dissolved by sonication to give solution A. 3.400 g KH2PO4 was weighed. 250 mL pure water was added. The mixture was dissolved by sonication to give solution B. The solution A was placed in a stirrer, and the solution B was slowly added until the pH reached 7.4, so that the 100 mM PBS buffer was prepared.
(§5) 2. A 10 mM NADPH solution was prepared with a 100 mM PBS buffer. A 10 mM stock solution of the compound of the present application was diluted with DMSO to give a compound working solution at a concentration of 200×(6000, 2000, 600, 200, 60, 20, and 0 μM). The positive inhibitor stock solution was diluted with DMSO to give a positive inhibitor working solution at a concentration of 200×(sulfaphenazole, 1000, 300, 100, 30, 10, 3, and 0 μM; quinidine/ketoconazole, 100, 30, 10, 3, 1, 0.3, and 0 μM). Substrate working solutions (120 μM diclofenac, 400 μM dextromethorphan, and 200 μM midazolam) at a concentration of 200× were prepared with water, acetonitrile, or acetonitrile/methanol.
(§6) 3. 2 μL of 20 mg/mL liver microsome solution, 1 μL of substrate working solution, 1 μL of compound working solution, and 176 μL of PBS buffer were taken, mixed well, and placed in a 37° C. water bath for pre-incubation for 15 min. 1 μL of sulfaphenazole, quinidine, or ketoconazole working solution was added to the positive control group instead of the compound working solution. At the same time, 10 mM NADPH solution was placed together in the 37° C. water bath for pre-incubation for 15 min. After 15 min, 20 μL of NADPH was added to each well to initiate the reaction. The mixture was incubated at 37° C. for 5 min (CYP2C9), 20 min (CYP2D6), or 5 min (CYP3A4). All incubated samples were in duplicate. After incubation for the corresponding period of time, 400 μL of icy methanol containing internal standard was added to all samples to stop the reaction. The mixture was vortexed, mixed well, and centrifuged for 40 min at 4° C. at 3220 g. 100 μL of the supernatant was transferred to a feeding plate after the centrifugation was completed, and 100 μL ultrapure water was added. The mixture was well mixed for LC-MS/MS analysis.
(§7) The reduction of metabolite production in the treatment groups versus the control group was compared by the peak area ratios of the sample to the internal standard, and the IC50 value was calculated using Excel XLfit 5.3.1.3.
(§8) Percentages of remaining activity were calculated according to the following formula:
(§9) Remaining activity%=peak area ratio of metabolite to internal standardtest sample/peak area ratio of metabolite to internal standardblank solvent×100%.

[2] = Metabolic stability in mouse liver microsomes; details: 1 μM compound, 0.5 mg/mL microsome, NADPH; for half-life at 1 μM: CD-1, mouse, liver microsomes, pH 7.4, read-out: Mouse liver microsome stability t1/2
Description: Test Example 4. Determination of Metabolic Stability of Compound of the Present Application in Liver Microsomes
The metabolic stability of the compound of the present application in liver microsomes was determined using the following method.
I. Experimental materials and instruments • 1. Human liver microsome (Corning 452117), beagle dog liver microsome (XENOTECH D1000), SD rat liver microsome (XENOTECH R1000), and CD-i mouse liver microsome (XENOTECH M1000) • 2. Na2HPO4 (Tianjin Guangfu Fine Chemical Research Institute 20180130) • 3. KH2PO4 (Tianjin Guangfu Fine Chemical Research Institute 20180920) • 4. MgCl2 (Tianjin Guangfu Fine Chemical Research Institute 20191216) • 5. NADPH (Solarbio 1216C022) • 6. Positive control compound verapamil (Sigma MKBV4993V) • 7. AB Sciex API4000 liquid chromatography-mass spectrometry system
as §4, with “of 100 mMV phosphate-buffered saline” for “of 100 mM phosphate-buffered saline”
2. Preparation of reaction system
The reaction system was prepared as follows:
3. The reaction system was pre-incubated in a 37° C. water bath for 10 min. 40 μL of 10 mM NADPH solution (NADPH was dissolved by 100 mM phosphate-buffered saline) was added to the reaction system with a final concentration of NADPH being 1 mM. A negative control was made by replacing the NADPH solution with 40 μL phosphate-buffered saline. The negative control was used to exclude the effect of chemical stability of the compound itself.
4. The reaction was initiated by adding 4 μL of 100 μM of the compound of the present application and verapamil, the positive control compound, to the reaction system with a final concentration of the compound being 1 μM.
5. After being uniformly mixed in a vortex oscillator, 50 μL incubation sample was respectively taken out at 0.5, 15, 30, 45, and 60 min, and the reaction was stopped by 200 μL glacial acetonitrile containing an internal standard. The sample was centrifuged at 3220 g for 45 min. 90 μL of the supernatant was transferred to a feeding plate after the centrifugation was completed, and 90 μL ultrapure water was added. The mixture was well mixed for LC-MS/MS analysis.
All data were calculated by Microsoft Excel software. The peak area was detected through an extracted ion chromatogram. The in vitro half-life (t1/2) of the compound was determined by linear fitting of the natural logarithm of compound elimination percentage over time.
In vitro half-life (t1/2) was calculated by the slope: […]
The in vitro intrinsic clearance (in μL/min/mg protein) was calculated using the following formula:
in vitro CLint=k×volume of incubation (μL)/amount of proteins (mg)
CLint was intrinsic clearance; k was an elimination rate constant; volume of incubation was the incubation volume (μL); amount of proteins was the amount of protein (mg)

[3] = target: CYP3A4 (Homo sapiens (Human), UniProt P08684); experiment: CYP3A4 inhibition in human liver microsomes (midazolam substrate); details: human liver microsome
CYP3A4, sequence (P08684 whole entry): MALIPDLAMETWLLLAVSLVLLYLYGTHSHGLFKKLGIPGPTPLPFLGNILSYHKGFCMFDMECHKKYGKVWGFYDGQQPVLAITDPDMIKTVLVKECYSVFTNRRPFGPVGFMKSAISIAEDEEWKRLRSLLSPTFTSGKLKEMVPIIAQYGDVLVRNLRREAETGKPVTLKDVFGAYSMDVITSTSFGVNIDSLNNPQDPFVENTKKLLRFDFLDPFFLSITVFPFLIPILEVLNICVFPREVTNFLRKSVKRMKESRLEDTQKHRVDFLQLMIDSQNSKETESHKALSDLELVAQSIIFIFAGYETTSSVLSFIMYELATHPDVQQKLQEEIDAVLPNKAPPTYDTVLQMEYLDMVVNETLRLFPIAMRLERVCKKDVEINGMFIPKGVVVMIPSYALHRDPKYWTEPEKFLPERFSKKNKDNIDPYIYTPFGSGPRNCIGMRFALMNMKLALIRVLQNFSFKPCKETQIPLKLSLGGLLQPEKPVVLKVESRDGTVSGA
Description: as §1, §2, §3, §4, §5, §6, §7, §8, §9

CYP2C9, sequence (P11712 whole entry): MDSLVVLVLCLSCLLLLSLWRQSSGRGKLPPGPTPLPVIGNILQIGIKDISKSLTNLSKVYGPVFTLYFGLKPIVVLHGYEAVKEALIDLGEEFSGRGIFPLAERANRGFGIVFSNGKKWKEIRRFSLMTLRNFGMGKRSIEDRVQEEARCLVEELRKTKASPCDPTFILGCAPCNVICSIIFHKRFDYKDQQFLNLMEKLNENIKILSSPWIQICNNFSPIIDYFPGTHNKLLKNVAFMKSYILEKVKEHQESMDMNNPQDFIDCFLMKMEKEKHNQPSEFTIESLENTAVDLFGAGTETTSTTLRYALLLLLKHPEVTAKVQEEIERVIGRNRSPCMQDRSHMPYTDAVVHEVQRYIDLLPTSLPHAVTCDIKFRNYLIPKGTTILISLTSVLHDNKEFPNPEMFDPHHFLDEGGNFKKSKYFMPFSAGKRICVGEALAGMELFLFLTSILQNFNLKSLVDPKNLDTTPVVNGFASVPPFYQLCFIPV

Row | IC50 [1] | half-life at 1 μM [2] | IC50 [3] | Structure (SMILES) | Mouse liver microsome stability t1/2 [2]
1 | > 30 µM | > 5 h | > 30 µM | Cn1cnc2c(=O)n(-c3cccnc3C3CC3)c3cc(C(F)(F)F)ccc3c21 (single isomer, unassigned) [Compound 48-P2, 5-(2-cyclopropylpyridin-3-yl)-1-methyl-7-(trifluoromethyl)-1,5-dihydro-4H-imidazo[4,5-c]quinolin-4-one] | 
2 | > 30 µM | > 5 h | > 30 µM | Cc1ncccc1-n1c(=O)c2ncn(C)c2c2ccc(C(F)(F)F)nc21 (atropisomer, axis not shown) [Compound 20, 1-methyl-5-(2-methylpyridin-3-yl)-7-(trifluoromethyl)-1,5-dihydro-4H-imidazo[4,5-c][1,8]naphthyridin-4-one] | 
3 | > 30 µM | > 5 h | > 30 µM | Cc1ncccc1-n1c(=O)c2ncn(C)c2c2ccc(C(F)(F)F)cc21 [Compound 45, 1-methyl-5-(2-methylpyridin-3-yl)-7-(trifluoromethyl)-1,5-dihydro-4H-imidazo[4,5-c]quinolin-4-one] | 
4 | > 30 µM |  | > 30 µM | O=c1c2ncoc2c2ccc(C(F)(F)F)nc2n1-c1cccnc1C1CC1 (single isomer, unassigned) [Compound 81-P2, 5-(2-cyclopropylpyridin-3-yl)-7-(trifluoromethyl)oxazolo[4,5-c][1,8]naphthyridin-4(5H)-one] | 
5 | > 30 µM | 1.86 h | > 30 µM | Cn1cnc2c(=O)n(-c3cccnc3C3CC3)c3nc(C(F)(F)F)ccc3c21 (single isomer, unassigned) [Compound 42-P2, 5-(2-cyclopropylpyridin-3-yl)-1-methyl-7-(trifluoromethyl)-1,5-dihydro-4H-imidazo[4,5-c][1,8]naphthyridin-4-one] | 
6 | > 30 µM | > 5 h | > 30 µM | Cn1cnc2c(=O)n(-c3cccnc3C(F)(F)F)c3nc(C(F)(F)F)ccc3c21 (single isomer, unassigned) [Compound 41-P2, 1-methyl-7-(trifluoromethyl)-5-(2-(trifluoromethyl)pyridin-3-yl)-1,5-dihydro-4H-imidazo[4,5-c][1,8]naphthyridin-4-one] | 
7 | > 30 µM | > 5 h | > 30 µM | Cn1cnc2c(=O)n(-c3cccc(F)c3Cl)c3nc(C(F)(F)F)ccc3c21 (single isomer, unassigned) [Compound 25-P2, 5-(2-chloro-3-fluorophenyl)-1-methyl-7-(trifluoromethyl)-1,5-dihydro-4H-imidazo[4,5-c][1,8]naphthyridin-4-one] | 
8 | > 30 µM | 4.78 h | > 30 µM | Cn1cnc2c(=O)n(-c3cccc(F)c3Cl)c3nc(C(F)(F)F)ccc3c21 (atropisomer, axis not shown) [Compound 25, 5-(2-chloro-3-fluorophenyl)-1-methyl-7-(trifluoromethyl)-1,5-dihydro-4H-imidazo[4,5-c][1,8]naphthyridin-4-one] | 

Row | Structure (SMILES) | IC50 [1] | half-life at 1 μM [2] | IC50 [3] | Mouse liver microsome stability t1/2 [2]
9 | Cc1ncccc1-n1c(=O)c2ncoc2c2ccc(C(F)(F)F)nc21 [Compound 40, 5-(2-methylpyridin-3-yl)-7-(trifluoromethyl)oxazolo[4,5-c][1,8]naphthyridin-4(5H)-one] | > 30 µM | > 5 h | > 30 µM | 
10 | Cn1cnc2c(=O)n(-c3cccc(F)c3Cl)c3cc(Cl)ccc3c21 [Compound 39, 7-chloro-5-(2-chloro-3-fluorophenyl)-1-methyl-1,5-dihydro-4H-imidazo[4,5-c]quinolin-4-one] | > 30 µM |  | > 30 µM | >5 h
11 | Cn1cnc2c(=O)n(-c3cccnc3C3CC3)c3cc(Cl)ccc3c21 (single isomer, unassigned) [Compound 49-P2, 7-chloro-5-(2-cyclopropylpyridin-3-yl)-1-methyl-1,5-dihydro-4H-imidazo[4,5-c]quinolin-4-one] | > 30 µM | > 5 h | > 30 µM | 
